Where a SMILES comes first, the peptide text is derived from it.
Molecular target: T1, EcPBP3 (Escherichia coli, UniProt P0AD68)
T1 construct: For assays, selections and SPR a construct with residues 60–588 which has the N-terminal domain, but not the transmembrane helix, was used; made in house
Experiment: Fluorescence polarisation competition assay with BOCILLIN-FL as tracer
Format: binding
Settings: competition format, NB, non-binder (100 μM top concentration); for IC50: read-out: IC50 (nM) by fluorescence polarisation with Bocillin FL as tracer, Geometric mean (Lower 95% CI of geo. Mean; Upper 95% CI of geo. Mean, n=number of values)
Method: Binding of output peptides to EcPBP3 was evaluated using a fluorescence polarisation (FP) assay.
[…] 10 µL of protein (9.4 nM) was mixed with either 5 µL of peptide or 5 µL of buffer and then the assay was initiated by the addition of 10 µL of tracer (1 nM) (final volume 25 µL), in a black 384 low bind, low volume plate (Corning). The buffer was 10 mM HEPES (Sigma), 2% (v/v) glycerol (Sigma), 300 mM NaCl (Sigma), adjusted to pH 8. The plate was incubated for 1 h at 25 °C and then read in a PHERAstar FS (BMG) using with an “FP 485 520 520” optic module (excitation 485 nm, emission 520 nm). The gain was determined immediately prior to the read on a tracer-only well.
Dotmatics (Dotmatics) workflows performing the above calculations were used to process the data. Values quoted are the geometric means of at least 2 repeats.

T1 sequence (P0AD68 60-588): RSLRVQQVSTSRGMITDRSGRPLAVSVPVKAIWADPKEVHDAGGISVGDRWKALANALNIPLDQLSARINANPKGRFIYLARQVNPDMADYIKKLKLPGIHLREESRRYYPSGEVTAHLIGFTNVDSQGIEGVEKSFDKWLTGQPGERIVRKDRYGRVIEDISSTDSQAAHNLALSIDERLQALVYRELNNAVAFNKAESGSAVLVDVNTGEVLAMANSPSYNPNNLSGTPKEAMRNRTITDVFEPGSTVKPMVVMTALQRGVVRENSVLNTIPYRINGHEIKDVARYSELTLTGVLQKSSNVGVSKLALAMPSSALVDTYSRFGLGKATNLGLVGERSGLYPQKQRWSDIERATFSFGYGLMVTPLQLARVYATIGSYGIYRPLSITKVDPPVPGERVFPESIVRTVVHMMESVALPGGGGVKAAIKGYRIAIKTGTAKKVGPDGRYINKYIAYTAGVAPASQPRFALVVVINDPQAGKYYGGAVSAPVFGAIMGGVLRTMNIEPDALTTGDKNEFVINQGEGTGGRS

SMILES	IC50 [nM]	IC50 (nM) by fluorescence polarisation with Bocillin FL as tracer, Geometric mean (Lower 95% CI of geo. Mean; Upper 95% CI of geo. Mean, n=number of values)
CC(C)C[C@@H]1NC(=O)[C@H](Cc2c[nH]c3ccccc23)NC(=O)[C@H](CCC(=O)O)NC(=O)[C@@H]2CCCN2C(=O)[C@H]([C@@H](C)O)NC(=O)[C@H](CCCCN)NC(=O)[C@H](C)NC(=O)[C@@H](NC(=O)[C@H](C)N)CSCCC(=O)N2CN3CN(C2)C(=O)CCSC[C@@H](C(=O)N[C@@H](C)C(N)=O)NC(=O)[C@H](Cc2ccc(O)cc2)NC(=O)[C@H](C)NC(=O)[C@H](CC(N)=O)NC(=O)[C@H](Cc2ccccc2)NC(=O)CNC(=O)[C@H](CSCCC3=O)NC1=O [Peptide 3] (HELM PEPTIDE1{A.C.A.K.T.P.E.W.L.C.G.F.N.A.Y.C.A.[am]}|CHEM1{[O=C(CC[*:1])N1CN(C(=O)CC[*:2])CN(C(=O)CC[*:3])C1]}$PEPTIDE1,CHEM1,2:R3-1:R1|PEPTIDE1,CHEM1,10:R3-1:R2|PEPTIDE1,CHEM1,16:R3-1:R3$$$V2.0)	> 100000	–
CC(C)C[C@@H]1NC(=O)[C@H](C(C)C)NC(=O)[C@H](C(C)C)NC(=O)[C@@H]2CCCN2C(=O)[C@H](CCCNC(=N)N)NC(=O)[C@H](C)NC(=O)[C@@H](NC(=O)[C@H](C)N)CSCCC(=O)N2CN3CN(C2)C(=O)CCSC[C@H](NC1=O)C(=O)N[C@@H](Cc1ccc(O)cc1)C(=O)N[C@@H](Cc1c[nH]c2ccccc12)C(=O)N1CCC[C@H]1C(=O)N[C@@H](CCC(=O)O)C(=O)N[C@@H](CC(=O)O)C(=O)N[C@H](C(=O)N[C@@H](C)C(N)=O)CSCCC3=O [Peptide 15] (HELM PEPTIDE1{A.C.A.R.P.V.V.L.C.Y.W.P.E.D.C.A.[am]}|CHEM1{[O=C(CC[*:1])N1CN(C(=O)CC[*:2])CN(C(=O)CC[*:3])C1]}$PEPTIDE1,CHEM1,2:R3-1:R1|PEPTIDE1,CHEM1,9:R3-1:R2|PEPTIDE1,CHEM1,15:R3-1:R3$$$V2.0)	> 100000	–
CC(C)C[C@@H]1NC(=O)[C@@H](NC(=O)[C@H](C)N)CSCCC(=O)N2CN3CN(C2)C(=O)CCSC[C@H](NC(=O)[C@H](CC(N)=O)NC(=O)[C@H](CCC(=O)O)NC1=O)C(=O)N[C@@H](Cc1ccc(O)cc1)C(=O)N[C@@H](Cc1ccc(O)cc1)C(=O)N[C@@H](C(C)C)C(=O)N1CCC[C@H]1C(=O)N[C@@H](Cc1ccc(O)cc1)C(=O)N[C@@H](Cc1ccc(O)cc1)C(=O)NCC(=O)N[C@@H](Cc1ccc(O)cc1)C(=O)N[C@@H](C)C(=O)N[C@H](C(=O)N[C@@H](C)C(N)=O)CSCCC3=O [Peptide 13] (HELM PEPTIDE1{A.C.L.E.N.C.Y.Y.V.P.Y.Y.G.Y.A.C.A.[am]}|CHEM1{[O=C(CC[*:1])N1CN(C(=O)CC[*:2])CN(C(=O)CC[*:3])C1]}$PEPTIDE1,CHEM1,2:R3-1:R1|PEPTIDE1,CHEM1,6:R3-1:R2|PEPTIDE1,CHEM1,16:R3-1:R3$$$V2.0)	3800	showed binding to EcPBP3
CSCC[C@@H]1NC(=O)[C@H](CC(N)=O)NC(=O)[C@H]([C@@H](C)O)NC(=O)[C@H](Cc2ccccc2)NC(=O)[C@H](CCC(=O)O)NC(=O)[C@H](CC(C)C)NC(=O)[C@@H]2CSCCC(=O)N3CN(CN(C3)C(=O)CCSC[C@@H](C(=O)N[C@@H](C)C(N)=O)NC1=O)C(=O)CCSC[C@H](NC(=O)[C@H](C)N)C(=O)N[C@@H](Cc1ccc(O)cc1)C(=O)N[C@@H](CCCCN)C(=O)N[C@@H](Cc1ccc(O)cc1)C(=O)N1CCC[C@H]1C(=O)NCC(=O)N[C@@H](CC(C)C)C(=O)N2 [Peptide 9] (HELM PEPTIDE1{A.C.Y.K.Y.P.G.L.C.L.E.F.T.N.M.C.A.[am]}|CHEM1{[O=C(CC[*:1])N1CN(C(=O)CC[*:2])CN(C(=O)CC[*:3])C1]}$PEPTIDE1,CHEM1,2:R3-1:R1|PEPTIDE1,CHEM1,9:R3-1:R2|PEPTIDE1,CHEM1,16:R3-1:R3$$$V2.0)	> 100000	–

— publication PMC12120022, “Discovery and chemical optimisation of a potent, Bi-cyclic antimicrobial inhibitor of Escherichia coli PBP3” (Communications Biology, 2025)
